Columns and labels:
[1] = system: CHO-K1 control cells; experiment: Erk phosphorylation in CHO-K1 control cells transfected with empty pEFIN5 vector; assay type: cell-based; conditions: 1 μM; 5 min, 20 min or 1 h
[2] = target: T1, GPR86 (P2Y13) human receptor (Homo sapiens, UniProt Q9BPV8, T179M); experiment: Western blot of phosphorylated Erk1 and Erk2 in GPR86-transfected CHO-K1 cells; assay type: cell-based; design: expressed in transfected cells; conditions: for Erk phosphorylation / time of stimulation giving maximal Erk phosphorylation response: 1 μM; for concentration at which a significant effect on Erk phosphorylation was already observed / concentration giving maximal effect on Erk phosphorylation: 5 min stimulation; for concentration giving maximal effect on Erk phosphorylation: 1 nM to 10 μM tested
T1 sequence (Q9BPV8 22-354 T179M): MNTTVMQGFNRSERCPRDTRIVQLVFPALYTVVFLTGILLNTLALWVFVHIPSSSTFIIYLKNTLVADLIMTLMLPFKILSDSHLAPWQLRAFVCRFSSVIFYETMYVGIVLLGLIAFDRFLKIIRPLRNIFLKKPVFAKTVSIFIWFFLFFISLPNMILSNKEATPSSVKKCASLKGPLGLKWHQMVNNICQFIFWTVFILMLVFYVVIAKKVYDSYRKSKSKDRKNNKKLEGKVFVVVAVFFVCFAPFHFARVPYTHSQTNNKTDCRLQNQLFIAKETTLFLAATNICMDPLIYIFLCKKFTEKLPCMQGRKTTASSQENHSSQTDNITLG
Procedure: To investigate changes in the activation status of the MAP kinases Erk1 and Erk2 upon stimulation of the human GPR86 receptor, whole CHO-K1 transfected cell extracts were analysed by Western blotting using a specific antibody for the dually phosphorylated kinases (at Thr^202 and Tyr^204), which are the active forms of Erk. Western Blot Analysis of phosphorylated Erk1 and Erk2 proteins.
GPR86-transfected CHO-K1 cells were seeded at 1.5×10^6 cells/dish. After 24 h, the cells were serum-starved for 2 h in KRH buffer. After stimulation with the agonist, the cells were scraped in 1 ml of PBS pH 7.3 (137 mM NaCl, 2.7 mM KCl, 4.3 mM Na2HPO4.7H2O and 1.4 mM KH2PO4). The cells were recovered by centrifugation and lysed in 150 μl of Laemmli buffer (10% (w/v) glycerol, 5% (v/v) mercaptoethanol, 2.3% (w/v) SDS, 62.5 mM Tris-HCl pH 6.8). The protein concentration was determined using the method of Minamide and Bamburg (27). The same amount of protein for each condition was electrophoresed in a 12% SDS-polyacrylamide gel. Proteins were then transferred overnight at 60 V and 4° C. onto a nitrocellulose membrane using 20 mM Tris, 154 mM glycine, 20% (v/v) methanol as a transfer buffer. Immunodetection was achieved using the enhanced chemiluminescence Western blotting detection system (ECL, Amersham Phammacia Biotech) using a biotinylated-secondary mouse antibody ( 1/25,000). The monoclonal antibody specific for the dually phosphorylated forms of Erk1 and Erk2 (at Thr^202 and Tyr^204) was used at 1/1000-dilution.
In CHO-K1 cells, phosphorylated Erk1 and Erk2 had the predicted molecular mass of 44 and 42 kDa, respectively. […] GPR86-transfected CHO-K1 cells were stimulated during different times or with various concentrations of ADP and 2MeSADP or water (CONT). The effect of 100 ng/ml pertussis toxin (PTx) has been tested at 5 and 30 min in the presence of 1 μM ADP or 2MeSADP. Blotting and immunodetection were achieved as described using the enhanced chemiluminescence Western blotting detection system (ECL, Amersham Pharmacia Biotech).

Row | Structure (SMILES) | Erk1 or Erk2 phosphorylation [1] | Erk phosphorylation [2] | time of stimulation giving maximal Erk phosphorylation response [2] | concentration at which a significant effect on Erk phosphorylation was already observed [2] | concentration giving maximal effect on Erk phosphorylation [2]
1 | CSc1nc(N)c2ncn([C@@H]3O[C@H](COP(=O)(O)OP(=O)(O)O)[C@@H](O)[C@H]3O)c2n1 [2MeSADP, 2-methylthio-ADP] | not observed | strong phosphorylation of Erk2 | 5 min | 10 nM | 1 µM
2 | Nc1ncnc2c1ncn2[C@@H]1O[C@H](COP(=O)(O)OP(=O)(O)O)[C@@H](O)[C@H]1O [ADP] | not observed | strong phosphorylation of Erk2 | 5 min | 10 nM | 1 µM

Source: patent US7422846B2, “Natural ligand for orphan G protein coupled receptor GPR86 and methods of use” (Euroscreen S.A, priority 2001, dated 2008)
